For data set [1] the following is noted: 101.33 kPa, Liquid, Vibrating tube method.
Data set [2] is described as follows: refractive index (Na D-line) (dimensionless). The note with it: 101.33 kPa, Liquid, Standard Abbe refractometry.

Consider three compounds from the NIST ThermoML archive (doi:10.1016/j.tca.2015.08.023).

The structures appear in SMILES notation. Numbers after ± are expanded uncertainties.

The term mass density denotes mass per unit of volume. Usually refractive index stands for a measure of how strongly the sample bends light. Turning to `CCc1ccccc1` [ethylbenzene], the mass density in data set [1] (298.15 K) came to 862.7 ± 2 kg/m3; in data set [1] (308.15 K) it was 853.8 ± 2 kg/m3; in data set [1] (318.15 K), 844.8 ± 2 kg/m3. Also, the refractive index in data set [2] (298.15 K) is recorded as 1.4928 ± 0.0005; in data set [2] (308.15 K), 1.4879 ± 0.0005; in data set [2] (318.15 K) it was 1.4832 ± 0.0005.
As to `CCCCCCCC` [octane], the mass density came to 698.6 ± 2 kg/m3 in data set [1] (298.15 K), 690.5 ± 2 kg/m3 in data set [1] (308.15 K) and 682.2 ± 2 kg/m3 in data set [1] (318.15 K). For the same compound, the results for the refractive index in data set [2] (298.15 K), in data set [2] (308.15 K) and in data set [2] (318.15 K) were 1.3948 ± 0.0005, 1.3904 ± 0.0005 and 1.3868 ± 0.0005, respectively.
With `CCCc1ccccc1` [propylbenzene], the mass density was 857.9 ± 2.1 kg/m3 in data set [1] (298.15 K), 849.4 ± 2.1 kg/m3 in data set [1] (308.15 K) and 840.9 ± 2.1 kg/m3 in data set [1] (318.15 K). Also, the values for the refractive index in data set [2] (298.15 K), in data set [2] (308.15 K) and in data set [2] (318.15 K) were 1.4892 ± 0.0006, 1.4844 ± 0.0006 and 1.48 ± 0.0006, respectively.
